Experimental data published in US6906170B1 (Yeda Research and Development Co. Ltd., priority 1998, dated 2005).
No end group written: not given here.

Columns and labels:
Type in all cases: cell-based
human T cells [1] = experiment: IL-2-induced T cell adhesion to LN, CO-IV and FN after peptide pre-treatment; conditions: pre-exposed to peptide 10 pg/ml, then IL-2 10 U/ml
Description: The T cells were then seeded onto microtiter wells that were pre-coated (1 μg/well) with the various ECM glycoproteins. T cell adhesion was measured 30 min later.
T cell adhesion assays. Human T cells were purified from the peripheral blood of healthy donors, and T cell adhesion to immobilized protein substrates was examined as follows: Human leukocytes were isolated on a Ficoll gradient, washed, and incubated (2 h, 37° C., 7.5% CO2, humidified atmosphere) on petri dishes. The non-adherent cells were then collected and incubated (1 h, 37° C., 7.5% CO2, humidified atmosphere) on nylon wool columns (Novamed Ltd., Jerusalem, Israel). Unbound cells were eluted from the columns by extensive washings. The resulting cell population was always >92% T cells. […] After 4-6 h at 37° C., the wells were washed and ^51[Cr]-labeled T cells were added to the wells, 10^5 cells/100 μl of adhesion medium (RPMI-1640 supplemented with 0.1% BSA, 1% sodium pyruvate, 1% HEPES buffer). The microtiter plates containing the cells were incubated (30 min, 37° C.) in a humidified, 7.5% CO2 atmosphere, and then washed. The adherent cells were lysed, and the resulting supernatants were removed and analyzed in a γ-counter. For each experimental group, the results were expressed as the mean percentage ±SD of bound T cells from quadruplicate wells.
Ile-Val-Leu, Arg-Met-Leu-Thr (SEQ ID NO:2) and […](SEQ ID NO:1) inhibit T cell adhesion to LN, CO-IV and FN. The next experiment was designed and performed to verify that the three IL-2-derived peptides indeed affect T cell interactions with ECM glycoproteins other than FN. […] The treated cells were then added to microtiter wells coated with CO-IV, LN, and FN.

human T cells [2] = experiment: PHA- or IL-2-mediated T cell proliferation; conditions: peptide 1 to 100 pg/ml
Description: The in vitro bioassays (a) to (e) are well-known in the art. Thus, for example, assays (a), (b) and (e) may be carried out as described in the section Materials and Methods hereinafter. […] The IL-2-derived peptides or their derivatives are added to the culture wells (different amounts, 10 microliters) for the entire period of the assay. [^3H]-Thymidine is added to the microtiter 96 U-form well plates 18 h before harvesting the cultures on day 3 onto glass fiber filters and counted by liquid scintillation counter. Mean CPM and SD from quadriplicate culture are then presented.

human T cells [3] = experiment: Secretion of TNF-α and IFN-γ from proliferating T cells; conditions: peptide 1 to 100 pg/ml; not shown

Substance	inhibition of T cell adhesion to CO-IV, LN and FN (human T cells [1])	interference with PHA- or IL-2-mediated proliferative responses (human T cells [2])	inhibition of secretion of TNF-α and IFN-γ from proliferating T cells (human T cells [3])
Glu-Phe-Leu-Asn-Arg-Trp-Ile-Thr (EFLNRWIT; not fully specified (C-terminus); printed as Glu-Phe-Leu-Asn-Arg-Trp-Ile-Thr) [pep2]	inhibit T cell adhesion to the three major cell-adhesive glycoproteins of the ECM	none of them, at 1 to 100 pg/ml, interfered with either PHA- or IL-2-mediated proliferative responses	nor did these peptides inhibit the secretion of TNF-α and IFN-γ
Ile-Val-Leu [pep1]	inhibit T cell adhesion to the three major cell-adhesive glycoproteins of the ECM	none of them, at 1 to 100 pg/ml, interfered with either PHA- or IL-2-mediated proliferative responses	nor did these peptides inhibit the secretion of TNF-α and IFN-γ
